The melting point is the temperature, or range, at which the solid turns liquid.

Take `CCc1nc(N)nc(NC(CC)COCc2ccc(F)cc2)n1` (stereo unspecified): the melting point stood at 96 °C.

`ON=C1CCCc2occ(-c3cccc(Cl)c3)c21` showed a melting point of 157 to 158 °C.

With `Cn1cc(-c2cc3cccnc3[nH]2)c2cc(OC3(C(N)=O)CCC3)ccc21`, the melting point was 267 to 268 °C.

Regarding `N#Cc1nn(-c2c(Cl)cc(C(F)(F)F)cc2Cl)c(N)c1-c1ccc(F)c(Cl)c1`, the melting point was in the range of 197 to 198 °C.

Compound `O=C(O)Cn1c(-c2ccc(Br)o2)nc2cccnc21` registered a melting point of 229 to 231 °C.

In turn, `Cc1cc(NCc2ccccc2)n(C)n1` displayed a melting point of 95 to 97 °C.

Consider `Cc1ccc(C(=O)NC(=S)NCc2ccccc2C(N)=O)cc1`, for which the melting point was 145 to 147 °C.

Compound `O=c1c2ccccc2oc2cc(OCC(O)CCl)cc(O)c12` (stereo unspecified) yielded a melting point of 144 °C.

Take `c1ccc(-c2nc3ncccc3o2)cc1`: the melting point lay within 125 to 127 °C.

`C[Si](C)(C)c1cccc(I)c1C(=O)NC1CC1` yielded a melting point of 162 to 164 °C.

On to `COc1cc(N)c(Cl)cc1Cn1nc(-c2ccc(C(F)(F)F)cc2)[nH]c1=O`, for which the melting point was over 270 °C.

For `O=c1[nH]c2cc(O)ccc2c2oc3ccccc3c12`, the melting point was over 300 °C.

`C[C@@H](NC(=O)c1sc(-c2ccc(Cl)cc2)nc1C(F)(F)F)[C@](O)(Cn1cncn1)c1ccc(F)cc1F` displayed a melting point of 78 to 79 °C.

The compound `CCN1C2=C(CSC2)C(=O)Nc2ccccc21` had a melting point of 195 to 197 °C.

Regarding `O=C(O)CN(Cc1ccccc1)C(=S)CCc1nc2c(F)c(F)cc(F)c2s1`, the melting point was 138 to 140 °C.

`Nc1sc(-c2ccco2)c(CN(C2CCCCC2)C2CCCCC2)c1C(=O)c1ccc(Cl)cc1` gave a melting point of 158 to 160 °C.

`CCOC(=O)CC(C#N)(CC(=O)OCC)c1ccc(Cl)c(Cl)c1` showed a melting point of 69 to 71 °C.

Consider `CCCCC1CCC(CC(=O)c2ccc(-c3ccc(CC(C)CC)cc3F)cc2)CC1` (single isomer, unassigned; (+)), for which the melting point lay in the range of 71.4 to 72.1 °C.

Compound `CC(C)C(=O)Nc1c(OCc2ccccc2)cc(Br)cc1[N+](=O)[O-]` yielded a melting point of 197 to 198 °C.

`COc1ccc(-c2nc3cc4nc[nH]c(=O)c4cc3[nH]2)cc1`: the melting point was over 300 °C.

`CC(C)c1cccc(C(C)C)c1NC(=O)Nc1nnn(Cc2ccccc2)n1` showed a melting point of 180 to 181 °C.

For `N#Cc1ccc(O)cc1Cl`, the melting point is 157 to 158 °C.

The compound `CCOC(=O)C(CC(=O)c1cccc(C(F)(F)F)c1)(NC(C)=O)C(=O)OCC` showed a melting point of 91 to 92 °C.

`CCOC(=O)C(=O)Nc1ccc(C)cc1[N+](=O)[O-]` returned a melting point of 126 °C.

Take `CCCCC(Cc1ccc(OCCNC(=O)c2ccc(-c3cccc(CN(C)C)c3)cc2)cc1)C(=O)O` (stereo unspecified): the melting point was 95 to 97 °C.

Take `O=C(CCCc1ccccc1)N[C@H](Cc1ccc(F)cc1)[C@@H](O)c1ccc(C(F)(F)F)cc1` (racemic): the melting point lay in the range of 155 to 156 °C.

`COc1ccc(-c2cccc(OCc3ccccc3)c2)cc1` came in with a melting point of 78.5 to 81 °C.

Consider `Cc1cc(CNC(=O)c2sc(-n3cnn(Cc4ccc(F)cc4)c3=O)nc2C)[nH]n1`, for which the melting point is 234 to 235 °C.

In turn, `Clc1ccc2nc(NCC3CCN(CC4COc5ccccc5O4)CC3)sc2c1` (stereo unspecified) displayed a melting point of 156 °C.

With `O=C1c2ccccc2C(=O)N1CCCc1cccnc1`, the melting point lay within 88 to 89 °C.

On to `CC(=O)Oc1cc(C(=O)N2CCC(C(=O)C3CCCCC3)CC2)c([N+](=O)[O-])cc1OC(C)=O`, for which the melting point lay within 160 to 165 °C.

Take `O=C1CCC(c2ccc(NC3=NCCS3)cc2)=NN1`: the melting point was 217 to 218 °C.

Consider `COC(=O)c1ccc2sccc2c1O`, for which the melting point lay within 94 to 95 °C.

The compound `C=Cc1nc(NC)sc1-c1ccncc1` had a melting point of 110 to 111 °C.

Compound `CSc1sc(-c2ccccn2)c2c1C(=O)CC(C)(C)C2` showed a melting point of 217 to 220 °C.

Consider `O=Cc1cc(Cl)c(F)cc1O`, for which the melting point fell in the range of 103 to 104 °C.
